Structures can show the parent of a compound that is named as a salt.
Tests used:
K562 = experiment: Cell proliferation assay (CellTiterGlo, 72 hour incubation), K562; assay type: cell-based; conditions: Homo sapiens, K562 cells, inhibition of cell proliferation, CellTiterGlo luminescence
Experimental: (§1) Various cancer cell lines including K562 and COLO201, were treated with the compounds of the present disclosure to assess their effect on inhibiting cell proliferation.
(§2) For compound preparation, test compounds were diluted in duplicates from 10 mM stocks in 11-points 1:3 serial dilutions in DMSO. Then 125 nL test compounds at the serial dilutions were dispensed into 384-well assay plate using Echo dispenser. Staurosporine at 1 mM stock (5 μM final concentration) and DMSO (0.500 final concentration) were used as the positive and negative controls respectively.
(§3) To prepare cell lines, each frozen cell line stock was resuspended and grown in proper growth medium to a density of 40,000 cells/mL. Then 25 μL of cell suspension were dispensed into the assay plate to give seed cell density at 1,000 cells/well, compounds at 50 μM top concentration with 11-point serial dilutions, and 0.5% o DMSO final concentration. Assay plates were then centrifuged at 300 rpm for 1 minute and then incubated at 37° C., 9500 humidity, 500 CO2 for 72 hours. After the 72 hour incubation, the assay plate and its contents were equilibrated at room temperature for approximately 30 minutes. 25 μL of CellTiterGlo reagent was added to the assay plate and mixed for two minutes on an orbital shaker. Then after 10 minutes of incubation of assay plate at from temperature, the luminescence (RLU) signals in each well were recorded using Envision plate reader, then converted to percentage inhibition values using the signals in staurosporine and DMSO treated wells as the references. IC50 values were determined by curve fitting in Levenberg-Marquardt algorithm.

COLO201 = experiment: Cell proliferation assay (CellTiterGlo, 72 hour incubation), COLO201; assay type: cell-based; conditions: Homo sapiens, COLO 201, COLO201 cells, inhibition of cell proliferation, CellTiterGlo luminescence
Experimental: as §1, §2, §3

| IC50 (K562) [µM] | IC50 (COLO201) [µM] | SMILES |
| --- | --- | --- |
| < 1 |  | Cc1cn2cc(-c3nc(=O)n4cc(N5CCNCC5)ccc4n3)cc(F)c2n1 [Compound 99, 2-{8-fluoro-2-methylimidazo[1,2-a]pyridin-6-yl}-7-(piperazin-1-yl)-4H-pyrido[1,2-a][1,3,5]triazin-4-one] |
|  | < 1 | Cc1cn2cc(-c3nc(=O)n4cc(N5CCNCC5)ccc4n3)cc(F)c2n1 [Compound 100, 2-(8-fluoro-2-methylimidazo[1,2-a]pyridin-6-yl)-7-(piperazin-1-yl)-4H-pyrido[1,2-a][1,3,5]triazin-4-one hydrochloride] |
| < 1 | < 1 | Cc1cn2cc(-c3nc(=O)n4cc(N5CCN[C@@H](C)C5)ccc4n3)cc(F)c2n1 [Compound 101] |
| < 1 | 1 to 10 | Cc1cn2cc(-c3nc(=O)n4cc(N5CCN[C@H](C)C5)ccc4n3)cc(F)c2n1 [Compound 102, (R)-2-(8-fluoro-2-methylimidazo[1,2-a]pyridin-6-yl)-7-(3-methylpiperazin-1-yl)-4H-pyrido[1,2-a][1,3,5]triazin-4-one formic acid] |
| 1 to 10 | 1 to 10 | Cc1cn2cc(-c3nc(=O)n4cc(N5CCN(C)CC5)ccc4n3)cc(F)c2n1 [Compound 103, 2-(8-fluoro-2-methylimidazo[1,2-a]pyridin-6-yl)-7-(4-methylpiperazin-1-yl)-4H-pyrido[1,2-a][1,3,5]triazin-4-one] |
| ≥ 10 | ≥ 10 | Cc1cn2cc(-c3nc(=O)n4cc(N5CCCNCC5)ccc4n3)cc(F)c2n1 [Compound 104, 7-(1,4-diazepan-1-yl)-2-(8-fluoro-2-methylimidazo[1,2-a]pyridin-6-yl)-4H-pyrido[1,2-a][1,3,5]triazin-4-one hydrochloride] |
| ≥ 10 | ≥ 10 | Cc1cn2cc(-c3nc(=O)n4cc(N5CC6CNCC6C5)ccc4n3)cc(F)c2n1 (stereo not shown) [Compound 106, 2-(8-fluoro-2-methylimidazo[1,2-a]pyridin-6-yl)-7-(hexahydropyrrolo[3,4-c]pyrrol-2(1H)-yl)-4H-pyrido[1,2-a][1,3,5]triazin-4-one hydrochloride] |
| < 1 | < 1 | Cc1cn2cc(-c3nc(=O)n4cc(N5C[C@@H](C)N[C@@H](C)C5)ccc4n3)cc(F)c2n1 [Compound 107, 7-((3S,5R)-3,5-dimethylpiperazin-1-yl)-2-(8-fluoro-2-methylimidazo[1,2-a]pyridin-6-yl)-4H-pyrido[1,2-a][1,3,5]triazin-4-one hydrochloride] |
| 1 to 10 | < 1 | Cc1cn2cc(-c3nc(=O)n4cc(N5CCNCC5)cc(C)c4n3)cc(F)c2n1 [Compound 108, 2-(8-fluoro-2-methylimidazo[1,2-a]pyridin-6-yl)-9-methyl-7-(piperazin-1-yl)-4H-pyrido[1,2-a][1,3,5]triazin-4-one hydrochloride] |
| < 1 | < 1 | Cc1cn2cc(-c3nc(=O)n4cc(N5CCNC(C)(C)C5)ccc4n3)cc(F)c2n1 [Compound 109, 7-(3,3-dimethylpiperazin-1-yl)-2-(8-fluoro-2-methylimidazo [1,2-a]pyridin-6-yl)-4H-pyrido[1,2-a][1,3,5]triazin-4-one] |
| < 1 | < 1 | Cc1cn2cc(-c3nc(=O)n4cc(N5CCNCC5)cc(F)c4n3)cc(F)c2n1 [Compound 110, 9-fluoro-2-(8-fluoro-2-methylimidazo[1,2-a]pyridin-6-yl)-7-(piperazin-1-yl)-4H-pyrido[1,2-a][1,3,5]triazin-4-one hydrochloride] |
| 1 to 10 |  | Cc1cn2cc(-c3nc(=O)n4cc(C5CCNC5)ccc4n3)cc(F)c2n1 (stereo not shown) [Compound 112, 2-(8-fluoro-2-methylimidazo[1,2-a]pyridin-6-yl)-7-(pyrrolidin-3-yl)-4H-pyrido[1,2-a][1,3,5]triazin-4-one hydrochloride] |
| 1 to 10 | 1 to 10 | COc1cc(N2CCNCC2)cn2c(=O)nc(-c3cc(F)c4nc(C)cn4c3)nc12 [Compound 114, 2-(8-fluoro-2-methylimidazo[1,2-a]pyridin-6-yl)-9-methoxy-7-(piperazin-1-yl)-4H-pyrido[1,2-a][1,3,5]triazin-4-one hydrochloride] |
| < 1 | 1 to 10 | Cc1cn2cc(-c3nc(=O)n4cc(N5CCNCC5)c(C)cc4n3)cc(F)c2n1 [Compound 115, 2-(8-fluoro-2-methylimidazo[1,2-a]pyridin-6-yl)-8-methyl-7-(piperazin-1-yl)-4H-pyrido[1,2-a][1,3,5]triazin-4-one hydrochloride] |
| < 1 | < 1 | Cc1cn2cc(-c3nc(=O)n4cc(N5CCN[C@@H](C)C5)cc(F)c4n3)cc(F)c2n1 [Compound 116, (S)-9-fluoro-2-(8-fluoro-2-methylimidazo[1,2-a]pyridine-6-yl)-7-(3-methylpiperazin-1-yl)-4H-pyrido[1,2-a][1,3,5]triazin-4-one] |
| < 1 | < 1 | Cc1cn2cc(-c3nc(=O)n4cc(N5CCN[C@@H](C)C5)cc(C)c4n3)cc(F)c2n1 [Compound 117, (S)-2-(8-fluoro-2-methylimidazo[1,2-a]pyridin-6-yl)-9-methyl-7-(3-methylpiperazin-1-yl)-4H-pyrido[1,2-a][1,3,5]triazin-4-one hydrochloride] |
| 1 to 10 |  | Cc1cn2cc(-c3nc(=O)n4cc(N5CCN[C@@H](C)C5)cc(C)c4n3)cc(C)c2n1 [Compound 123, (S)-2-(2,8-dimethylimidazo[1,2-a]pyridin-6-yl)-9-methyl-7-(3-methylpiperazin-1-yl)-4H-pyrido[1,2-a][1,3,5]triazin-4-one hydrochloride] |
| 1 to 10 |  | Cc1cn2cc(-c3nc(=O)n4cc(N5CCN(C)[C@@H](C)C5)cc(C)c4n3)cc(F)c2n1 [Compound 124, (S)-7-(3,4-dimethylpiperazin-1-yl)-2-(8-fluoro-2-methylimidazo[1,2-a]pyridin-6-yl)-9-methyl-4H-pyrido[1,2-a][1,3,5]triazin-4-one] |
| 1 to 10 |  | Cc1cn2cc(-c3nc(=O)n4cc(N5CCNC(C)(C)C5)cc(C)c4n3)cc(F)c2n1 [Compound 125, 7-(3,3-dimethylpiperazin-1-yl)-2-(8-fluoro-2-methylimidazo [1,2-a]pyridin-6-yl)-9-methyl-4H-pyrido[1,2-a][1,3,5]triazin-4-one hydrochloride] |
| 1 to 10 |  | Cc1cn2cc(-c3nc(=O)n4cc(N5CCNCC5)ccc4n3)cc(C)c2n1 [Compound 126, 2-2,8-dimethylimidazo[1,2-a]pyridin-6-yl-7-(piperazin-1-yl)-4H-pyrido[1,2-a][1,3,5]triazin-4-one hydrochloride] |
| < 1 |  | CC[C@H]1CN(c2cc(F)c3nc(-c4cc(F)c5nc(C)cn5c4)nc(=O)n3c2)CCN1 [Compound 128, 7-[(3S)-3-ethylpiperazin-1-yl]-9-fluoro-2-{8-fluoro-2-methylimidazo[1,2-a]pyridin-6-yl}-4H-pyrido[1,2-a][1,3,5]triazin-4-one] |
| 1 to 10 |  | Cc1cc2cc(-c3nc(=O)n4cc(N5CCN[C@@H](C)C5)cc(C)c4n3)cc(C)n2n1 [Compound 129, 2-{2,7-dimethylpyrazolo[1,5-a]pyridin-5-yl}-9-methyl-7-[(3S)-3-methylpiperazin-1-yl]-4H-pyrido[1,2-a][1,3,5]triazin-4-one] |
| < 1 |  | Cc1cn2cc(-c3nc(=O)n4cc(N5CCNC(C)(C)C5)cc(F)c4n3)cc(F)c2n1 [Compound 130, 7-(3,3-dimethylpiperazin-1-yl)-9-fluoro-2-{8-fluoro-2-methylimidazo[1,2-a]pyridin-6-yl}-4H-pyrido[1,2-a][1,3,5]triazin-4-one] |
| 1 to 10 |  | Cc1cn2cc(-c3nc(=O)n4cc(N5CCNC6(CC6)C5)cc(C)c4n3)cc(F)c2n1 [Compound 132, 7-{4,7-diazaspiro[2.5]octan-7-yl}-2-{8-fluoro-2-methylimidazo[1,2-a]pyridin-6-yl}-9-methyl-4H-pyrido[1,2-a][1,3,5]triazin-4-one] |
| 1 to 10 |  | Cc1cc2cc(-c3nc(=O)n4cc(N5CCN[C@@H](C)C5)ccc4n3)cc(C)n2n1 [Compound 134, (S)-2-(2,7-dimethylpyrazolo[1,5-a]pyridin-5-yl)-7-(3-methylpiperazin-1-yl)-4H-pyrido[1,2-a][1,3,5]triazin-4-one] |
| 1 to 10 |  | Cc1cc2cc(-c3nc(=O)n4cc(N5CCNC(C)(C)C5)cc(F)c4n3)cc(C)n2n1 [Compound 135, 7-(3,3-dimethylpiperazin-1-yl)-2-(2,7-dimethylpyrazolo[1,5-a]pyridin-5-yl)-9-fluoro-4H-pyrido[1,2-a][1,3,5]triazin-4-one] |

| SMILES | IC50 (K562) [µM] | IC50 (COLO201) [µM] |
| --- | --- | --- |
| Cc1cn2cc(-c3nc(=O)n4cc(N5CC6CCC(C5)N6)ccc4n3)cc(F)c2n1 [Compound 105, 7-(3,8-diazabicyclo[3.2.1]octan-3-yl)-2-(8-fluoro-2-methylimidazo[1,2-a]pyridin-6-yl)-4H-pyrido[1,2-a][1,3,5]triazin-4-one hydrochloride] | ≥ 10 | ≥ 10 |
| Cc1cn2cc(-c3nc(=O)n4cc(C5=CCNCC5)ccc4n3)cc(F)c2n1 [Compound 111, 2-(8-fluoro-2-methylimidazo[1,2-a]pyridin-6-yl)-7-(1,2,3,6-tetrahydropyridin-4-yl)-4H-pyrido[1,2-a][1,3,5]triazin-4-one hydrochloride] | 1 to 10 | < 1 |

Source: patent publication US20250026753A1, “FUSED TRIAZINONE DERIVATIVES AND METHODS OF USING THE SAME” (Rgenta Therapeutics, Inc., priority 2021, published 2025)
